ChEMBL document CHEMBL1149212, “Synthesis and biological evaluation of imidazole-based small molecule antagonists of the melanocortin 4 receptor (MC4-R)” (Bioorg Med Chem Lett, 2004)

Legend:
[1] = system: HEK293; assay: Ability to decrease the intracellular cAMP levels induced by 1 nM NDP-MSH in HEK293/ hMC4 cells.; type: functional, cell-based; settings: Homo sapiens
[2] = biological target: Melanocortin receptor 4 (Homo sapiens, UniProt P32245); assay: In vitro binding affinity towards melanocortin 4 receptor.
Sequence of Melanocortin receptor 4 (P32245 whole entry): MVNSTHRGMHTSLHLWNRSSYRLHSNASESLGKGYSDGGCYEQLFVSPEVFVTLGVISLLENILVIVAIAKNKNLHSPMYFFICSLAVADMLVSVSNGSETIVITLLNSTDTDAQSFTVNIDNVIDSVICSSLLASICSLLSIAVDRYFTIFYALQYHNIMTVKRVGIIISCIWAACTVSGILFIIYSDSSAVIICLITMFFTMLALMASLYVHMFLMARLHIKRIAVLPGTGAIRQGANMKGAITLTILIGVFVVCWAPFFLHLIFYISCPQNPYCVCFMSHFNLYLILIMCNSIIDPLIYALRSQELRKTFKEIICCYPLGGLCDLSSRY

[3] = AUC in rat p.o.; type: ADME, organism-based; settings: plasma, po
[4] = Cmax in rat; type: ADME, organism-based; settings: in vivo
[5] = Plasma clearance in rat p.o.; type: ADME, organism-based; settings: po
[6] = Plasma clearance was determined; type: ADME, organism-based; settings: rat
[7] = Cmax in rat at the dose of 1 mg/kg i.v.; type: ADME, organism-based; parameters: dose 1 mg/kg, route intravenous; settings: in vivo, iv
[8] = AUC was determined; type: ADME; settings: plasma

| SMILES | Ki [2] | IC50 [1] | also measured |
| --- | --- | --- | --- |
| COc1ccc(Br)cc1CCc1c(Cl)cccc1-c1ncc[nH]1 | 1500 nM | 580 nM | – |
| CCC(C)n1ccnc1-c1cccc(Cl)c1CCc1cc(Br)ccc1OC (configuration not stated) | 2500 nM | 2100 nM | – |
| COc1ccc(Br)cc1CCc1c(F)cccc1-c1ncc2n1CCCC2 | 620 nM | 480 nM | – |
| COc1ccc(Br)cc1CCc1c(Cl)cccc1-c1nccn1C(C)C | 670 nM | 1400 nM | – |
| COc1ccc(Br)cc1CCc1ccccc1-c1nc(C(C)C)cn1C | 1600 nM | 1200 nM | – |
| CCCn1ccnc1-c1cccc(Cl)c1CCc1cc(Br)ccc1OC | 1300 nM | 1900 nM | – |
| Cn1ccnc1-c1cccc(Cl)c1CCc1cc(Br)ccc1O | 9300 nM | 10200 nM | – |
| COc1ccc(Br)cc1CCc1c(Cl)cccc1-c1ncc2n1CCCC2 | 340 nM | 590 nM | AUC [3]: 2 µM·h; Cmax [4]: 6.45 µM; CL/F [5]: 18.3 mL/min/kg |
| COc1ccc(Br)cc1CCc1c(Cl)cccc1-c1nccn1CC1CC1 | 2000 nM | 1700 nM | – |
| CCc1cn(C)c(-c2ccccc2CCc2cc(Br)ccc2OC)n1 | 690 nM | 820 nM | – |
| COc1ccc(Br)cc1CCc1c(F)cccc1C1=NCCN1 | – | – | clearance [6]: 222 mL/min/kg; Cmax [7]: 0.031 µM; AUC [8]: 0.204 µM·h |

More lines, main results first:

| Ki [2] | SMILES | IC50 [1] | also measured |
| --- | --- | --- | --- |
| 310 nM | CCn1ccnc1-c1cccc(Cl)c1CCc1cc(Br)ccc1OC | 1800 nM | – |
| 140 nM | COc1ccc(Br)cc1CCc1ccccc1-c1nc(C)c(C)n1C | 200 nM | – |
| 320 nM | CCc1cnc(-c2ccccc2CCc2cc(Br)ccc2OC)n1C | 170 nM | – |
| 270 nM | COc1ccc(Br)cc1CCc1ccccc1-c1nc(C)cn1C | 240 nM | – |
| 300 nM | COc1ccc(Br)cc1CCc1c(Cl)cccc1-c1nccn1C | 1100 nM | – |
| 320 nM | COc1ccc(Br)cc1CCc1c(F)cccc1-c1ncc2n1CCC2 | 390 nM | – |
| 180 nM | COc1ccc(Br)cc1CCc1ccccc1-c1ncc(C)n1C | 51 nM | – |
| 180 nM | COc1ccc(Br)cc1CCc1c(Cl)cccc1-c1ncc2n1CCC2 | 710 nM | – |
